Earlier results as cited in patent US6211219A, “Aminocyclohexane derivatives as 5-HT receptor agonists” (Merck Sharp & Dohme Ltd., priority 1996, dated 2001).

Legend:
[1] = tested on: human 5-HT1Dα and 5-HT1Dβ receptor subtypes; conditions: cf. WO-A-91/17174, Table 1
[2] = tested on: humans; conditions: therapeutic doses

Structure (SMILES): CNS(=O)(=O)Cc1ccc2[nH]cc(CCN(C)C)c2c1 [sumatriptan]
- discrimination between the human 5-HT1Dα and 5-HT1Dβ receptor subtypes [1]: barely discriminates
- adverse cardiovascular events on administration to humans [2]: certain adverse cardiovascular events
